Measured values from patent publication US20140315886A1, “QUINAZOLINES AS THERAPEUTIC COMPOUNDS AND RELATED METHODS OF USE” (OTSUKA PHARMACEUTICAL CO., LTD., priority 2011, published 2014).

Molecular target: T1, purified STEP46 enzyme (Homo sapiens, UniProt P54829)
T1 sequence (P54829 197-565 limits assumed): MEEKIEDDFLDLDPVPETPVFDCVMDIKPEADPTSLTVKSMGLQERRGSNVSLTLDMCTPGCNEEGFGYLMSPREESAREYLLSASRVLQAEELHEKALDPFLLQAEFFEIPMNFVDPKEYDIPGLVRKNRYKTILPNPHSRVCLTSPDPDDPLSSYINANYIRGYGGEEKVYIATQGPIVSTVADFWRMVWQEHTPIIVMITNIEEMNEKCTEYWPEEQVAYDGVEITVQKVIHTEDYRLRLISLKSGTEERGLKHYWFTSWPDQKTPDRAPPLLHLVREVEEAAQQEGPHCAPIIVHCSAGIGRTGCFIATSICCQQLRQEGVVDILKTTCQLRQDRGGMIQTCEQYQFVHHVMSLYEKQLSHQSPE
Assay: STEP46 biochemical assay (DiFMUP fluorescence phosphatase assay)
Details: DiFMUP 10 μM, read-out: STEP IC50
Method: Serial dilutions of compounds were performed in 100% DMSO and 1 uL of compounds were dispensed into 384-well black polystyrene plates (Corning, N.Y.). Compounds were incubated with 24 uL of buffer containing 50 mM Hepes, 1 mM DTT, 0.02% Brij35, 1 ng/well purified STEP46 enzyme for […] at room temperature. The reaction was initiated by addition of 25 uL of DiFMUP (6,8-difluoro-4-methylumbelliferyl phosphate) (InVitrogen, CA) with a final concentration of 10 μM and incubated at 27° C. for 90 mM Final DMSO concentration is 2%. Plates were read with florescence intensity at excitation/emission of 360/460 nm using a PheraStar plate reader (BMG Labtech, NC).
Data were expressed as percentage (%) inhibition of enzyme activity. 0% inhibition is defined as the RFUs (relative fluorescence units) in the absence of compounds and 100% inhibition is defined as RFUs in the absence of STEP46 enzyme. IC50 values of compounds with inhibitory activity against STEP46 were determined by GraphPad Prism (version 4.03) using four parameter logistic equation. Some compounds act as activators. For compounds showing STEP46 enzymatic activation, data are represented as percentage of inhibition but with negative values at three representative concentrations (25, 50 and 100 uM).

SMILES	IC50 [µM]
CNc1nc(-c2cccnc2)nc2c(OC)cc(-c3cccc(C#N)c3)cc12 [Compound 206]	> 10
CCOc1ccc2nc(-c3cccnc3)nc(Nc3ccc(C)cn3)c2c1 [Compound 56]	1 to 10
Fc1ccc(F)c(-c2ccc3c(N4CCc5cc(Cl)ccc54)nc(-c4cccnc4)nc3c2)c1 [Compound 109]	1 to 10
Cc1c(-c2cncnc2)ccc2c(N3CCc4cc(Cl)ccc43)nc(-c3cccnc3)nc12 [Compound 115]	< 1
CNc1nc(-c2cccnc2)nc2c(-c3cccc(F)c3)cccc12 [Compound 274]	1 to 10
CNc1nc(-c2cccnc2)nc2c(OC)cc(-c3cc(F)cc(F)c3)cc12 [Compound 204]	1 to 10
O=[N+]([O-])c1ccc2c(c1)CCN2c1nc(-c2cccnc2)nc2ccc(-c3cccc(F)c3F)cc12 [Compound 83]	< 1
CCOc1cccc(-c2ccc3c(NC)nc(-c4cccnc4)nc3c2)c1 [Compound 141]	1 to 10
Clc1ccc2c(c1)CCN2c1nc(-c2cccnc2)nc2cc(Br)ccc12 [Compound 14]	1 to 10
Brc1ccc2nc(-c3cccnc3)nc(N3CCc4ccccc43)c2c1 [Compound 19]	1 to 10
CNc1nc(-c2cccnc2)nc2c(OC)cc(-c3ccccc3Cl)cc12 [Compound 306]	1 to 10
Cc1ccc2c(c1)CCN2c1nc(-c2cccnc2)nc2ccc(-c3cccc(F)c3)cc12 [Compound 78]	1 to 10
Cc1ccc2c(c1)CCN2c1nc(-c2cccnc2)nc2ccc(-c3ccc(F)cc3)cc12 [Compound 79]	1 to 10
O=[N+]([O-])c1ccc2c(c1)CCN2c1nc(-c2cccnc2)nc2ccc(-c3ccc(F)cc3)cc12 [Compound 87]	< 1
COc1ccc2c(c1)CCN2c1nc(-c2cccnc2)nc2ccc(-c3ccc(F)cc3)cc12 [Compound 90]	< 1
COc1ccc2nc(-c3cccnc3)nc(Nc3ccc(F)nc3)c2c1 [Compound 35]	1 to 10
Clc1ccc2c(N3CCc4cccnc43)nc(-c3cccnc3)nc2c1 [Compound 62]	1 to 10
CNc1nc(-c2cccnc2)nc2ccc(-c3ncco3)cc12 [Compound 178]	> 10

SMILES	IC50 [µM]
CNc1nc(-c2cncc(C)c2)nc2cc(-c3cc(F)ccc3F)ccc12 [Compound 160]	1 to 10
CN(C)CCCN(C)c1nc(-c2cccnc2)nc2cc(-c3cc(F)ccc3F)ccc12 [Compound 314]	> 10
CNc1nc(-c2cccnc2)nc2cc(-c3cc(F)nc(F)c3)ccc12 [Compound 284]	< 1
CNc1nc(-c2cccnc2)nc2ccc(-c3ccc(OC)cc3C(F)(F)F)cc12 [Compound 249]	> 10
CCOc1cccc(-c2ccc3nc(-c4cccnc4)nc(NC)c3c2)c1F [Compound 242]	> 10
Fc1cccc(-c2ccc3c(N4CCc5cc(Cl)ccc54)nc(-c4cccnc4)nc3c2)c1 [Compound 96]	1 to 10
CNc1nc(-c2cccnc2)nc2c(C)c(-c3ccc(F)c(F)c3F)ccc12 [Compound 286]	1 to 10
CNc1nc(-c2cccnc2)nc2cc(-c3cc(OC)ccc3F)ccc12 [Compound 219]	1 to 10
CNc1nc(-c2cccnc2)nc2c(C)c(-c3ccncc3)ccc12 [Compound 293]	1 to 10
Clc1ccc2nc(-c3cccnc3)nc(N3CCc4cccnc43)c2c1 [Compound 61]	1 to 10
CNc1nc(-c2cncc(C#N)c2)nc2cc(-c3cc(F)ccc3F)ccc12 [Compound 163]	1 to 10
CNc1nc(-c2cccnc2)nc2ccc(-c3ccc4c(c3)OCCCO4)cc12 [Compound 170]	> 10
Clc1ccc2c(c1)N(c1nc(-c3cccnc3)nc3ccc(Br)cc13)CC2 [Compound 23]	1 to 10
CNc1nc(-c2cccnc2)nc2c(OC)cc(-c3ccc(C#N)cc3)cc12 [Compound 260]	> 10
Cc1ccc2c(c1)CCN2c1nc(-c2cccnc2)nc2ccc(-c3ccc(C#N)cc3)cc12 [Compound 81]	1 to 10
CNc1nc(-c2cccnc2)nc2ccc(-c3cccc(F)c3F)c(F)c12 [Compound 221]	1 to 10
CNc1nc(-c2cccnc2)nc2c(OC)cc(-c3cc(F)ccc3F)cc12 [Compound 252]	1 to 10
Cc1ccc2c(c1)N(c1nc(-c3cccnc3)nc3ccc(Br)cc13)CC2 [Compound 20]	1 to 10

Further lines, results first:

IC50 [µM]	SMILES
1 to 10	CNc1nc(-c2cccnc2)nc2c(-c3cc(F)ccc3F)ccc(OC)c12 [Compound 497]
1 to 10	CNc1nc(-c2cccnc2)nc2c(F)c(-c3ccc(F)cc3)ccc12 [Compound 505]
1 to 10	CNc1nc(-c2cccnc2)nc2c(F)cc(-c3ccc(C#N)cc3)cc12 [Compound 571]
> 10	CNc1nc(-c2cccnc2)nc2cc(-c3c(F)ccc(F)c3C)ccc12 [Compound 323]
1 to 10	CNc1nc(-c2cccnc2)nc2c(-c3cccc(F)c3F)ccc(OC)c12 [Compound 492]
1 to 10	CC(Nc1nc(-c2cccnc2)nc2cc(-c3cc(F)ccc3F)ccc12)c1ccccn1 (centres unmarked) [Compound 368]
1 to 10	Cc1noc(C)c1-c1nc(-c2cccnc2)nc2ccc(-c3ccc(F)cc3F)cc12 [Compound 422]
> 10	CNc1nc(-c2cccnc2)nc2ccc(-c3cnc(-c4ccccc4)s3)cc12 [Compound 464]
1 to 10	CC(Nc1nc(-c2cccnc2)nc2ccc(-c3ccccc3F)cc12)c1ccccn1 (centres unmarked) [Compound 366]
< 1	CNc1nc(-c2cccnc2)nc2c(F)cc(-c3cccc(C#N)c3)cc12 [Compound 570]
1 to 10	CNc1nc(-c2cccnc2)nc2cc(-c3ccc(F)c(F)c3)c(F)cc12 [Compound 558]
< 1	Cn1ccc2cc(-c3ccc4nc(-c5cccnc5)nc(NCc5ccccn5)c4c3)ccc21 [Compound 342]
1 to 10	COc1ccc(-c2ccc3nc(-c4cccnc4)nc(NCc4ccccn4)c3c2)cc1 [Compound 344]
1 to 10	CNc1nc(-c2cccnc2)nc2ccc(-c3c(F)cc(F)cc3F)cc12 [Compound 457]
1 to 10	CNc1nc(-c2cccnc2)nc2c(F)c(-c3ccco3)ccc12 [Compound 524]
1 to 10	COc1cc(-c2ccc(F)cc2F)cc2c(N3CC(OC)C3)nc(-c3cccnc3)nc12 [Compound 741]
> 10	CNc1nc(-c2cccnc2)nc2ccc(-c3cc(F)cc(F)c3)c(OC)c12 [Compound 488]
1 to 10	CNc1nc(-c2cccnc2)nc2ccc(-c3ccc(F)cc3F)c(OC)c12 [Compound 487]
< 1	CNc1nc(-c2cccnc2)nc2ccc(-c3cccc4[nH]c(=O)oc34)cc12 [Compound 475]
1 to 10	CNc1nc(-c2cccnc2)nc2c(F)c(-c3ccc(C)cc3)ccc12 [Compound 526]
> 10	CNc1nc(-c2cccnc2)nc2cc(F)c(-c3ccccc3OC)cc12 [Compound 593]
< 1	CNc1nc(-c2cccnc2)nc2c(F)c(-c3cc(F)cc(F)c3)ccc12 [Compound 516]
1 to 10	CNc1nc(-c2cccnc2)nc2c(F)c(-c3ccc(F)c(C)c3)ccc12 [Compound 541]
1 to 10	CNc1nc(-c2cnccn2)nc2cc(-c3ccc(F)cc3F)ccc12 [Compound 395]
1 to 10	CNc1nc(-c2cccnc2)nc2c(F)c(-c3ccoc3)ccc12 [Compound 530]
1 to 10	CNc1nc(-c2cccnc2)nc2cc(F)c(-c3ccc(F)cc3)cc12 [Compound 587]
